Measured values taken from patent US4515941A, “23-Demycinosyldesmycosin derivatives” (Toyo Jozo Kabushiki Kaisha, priority 1982, dated 1985).
Converted amounts (≈) assume the structure as drawn. Read-outs that look alike come from different tables or passages of the source.

Assays:
Type in all cases: cell-based
Escherichia coli B = assay: MIC, Escherichia coli B
[1] = system: Staphylococcus epidermis sp-al-1; assay: MIC, Staphylococcus epidermis sp-al-1; conditions: SPAL1; Staphylococcus epidermis sp-al-1; read-out: MIC
Sarcina lutea ATCC 9341 = assay: MIC, Sarcina lutea ATCC 9341; conditions: Micrococcus luteus, ATCC9341
Proteus vulgaris OX19 = assay: MIC, Proteus vulgaris OX19
Shigella sonnei E33 = assay: MIC, Shigella sonnei E33
[2] = system: Streptococcus agalactiae 1020; assay: MIC, Streptococcus agalactiae 1020; conditions: Streptococcus agalactiae 1020; read-out: MIC
[3] = system: Bacillus subtilis ATC 6633; assay: MIC, Bacillus subtilis ATC 6633
[4] = system: Streptococcus pyogenes N.Y.5; assay: MIC, Streptococcus pyogenes N.Y.5; conditions: read-out: MIC
[5] = system: Escherichia coli NIHJ-JC2; assay: MIC, Escherichia coli NIHJ-JC2; conditions: NIHJJC2
[6] = system: Pseudomonas aeruginosa IAM 1095; assay: MIC, Pseudomonas aeruginosa IAM 1095; conditions: IAM1095
[7] = system: Staphylococcus aureus MS353 C36; assay: MIC, Staphylococcus aureus MS353 C36; conditions: MS353C36
Salmonella typhosa H901 = assay: MIC, Salmonella typhosa H901
[8] = system: Streptococcus faecalis 1501; assay: MIC, Streptococcus faecalis 1501
[9] = system: Klebsiella pneumoniae ATCC 10031; assay: MIC, Klebsiella pneumoniae ATCC 10031
[10] = system: Staphylococcus aureus ATCC 6538P; assay: MIC, Staphylococcus aureus ATCC 6538P; conditions: ATCC6538P, read-out: MIC
[11] = system: Staphylococcus aureus 0119; assay: MIC, Staphylococcus aureus 0119 (macrolide resistant); conditions: macrolide resistant bacteria A group
Description: (§1) *macrolide resistant bacteria A group (clinical isolates of erythromycin,
(§2) oleandomycin and 16membered macrolide antibiotic resistant strains.)

[12] = system: Staphylococcus aureus 0127; assay: MIC, Staphylococcus aureus 0127 (macrolide resistant); conditions: Staphylococcus aureus 0127; macrolide resistant bacteria A group; read-out: MIC
Description: as §1, §2

[13] = system: Streptococcus pyogenes 1022; assay: MIC, Streptococcus pyogenes 1022 (macrolide resistant); conditions: Streptococcus pyogenes 1022; macrolide resistant bacteria A group; read-out: MIC
Description: as §1, §2

[14] = system: Corynebacterium diptheriae P.Y.8; assay: MIC, Corynebacterium diptheriae P.Y.8
[15] = system: Shigella flexineri type 3a; assay: MIC, Shigella flexineri type 3a; conditions: TYPE3A
[16] = system: Staphylococcus aureus MS353; assay: MIC, Staphylococcus aureus MS353; conditions: Staphylococcus aureus MS353; read-out: MIC
[17] = system: Micrococcus flavus ATCC 10240; assay: MIC, Micrococcus flavus ATCC 10240; conditions: ATCC10240
[18] = system: Staphylococcus aureus MS353 A0; assay: MIC, Staphylococcus aureus MS353 A0 (macrolide resistant); conditions: MS353A0, macrolide resistant bacteria A group
Description: as §1, §2

Serratia marcescens = assay: MIC, Serratia marcescens
[19] = system: Salmonella enteritidis Gaertner; assay: MIC, Salmonella enteritidis Gaertner; conditions: Salmonella enterica
[20] = Proteus vulgaris OX19, read-out: MIC
[21] = ATC6633, Bacillus subtilis ATC 6633, read-out: MIC
[22] = Pseudomonas aeruginosa IAM 1095, read-out: MIC
[23] = Enterococcus faecalis, Streptococcus faecalis 1501, read-out: MIC
[24] = ATCC10031, Klebsiella pneumoniae ATCC 10031, read-out: MIC
[25] = Corynebacterium diptheriae P.Y.8, read-out: MIC
[26] = Micrococcus flavus ATCC 10240, read-out: MIC
[27] = Salmonella enteritidis Gaertner, read-out: MIC

Molecule CCC1OC(=O)CC(O)C(C)C(OC2OC(C)C(O)C(N(C)C)C2O)C(CC=O)CC(C)C(=O)C=CC(C)=CC1COc1ccccc1 (stereo not drawn) has an MIC (Escherichia coli B) of 25 µg/mL (≈ 37.1 µM), an MIC [1] of no more than 0.05 µg/mL and an MIC (Sarcina lutea ATCC 9341) of no more than 0.05 µg/mL. It also gave an MIC (Proteus vulgaris OX19; [20]) of 12.5 µg/mL (≈ 18.6 µM), an MIC (Shigella sonnei E33) of 50 µg/mL (≈ 74.2 µM) and an MIC [2] of no more than 0.05 µg/mL. The MIC [3, 21] was no more than 0.05 µg/mL, the MIC [4] was no more than 0.05 µg/mL and the MIC [5] was 50 µg/mL (≈ 74.2 µM). The MIC [6, 22] was 50 µg/mL (≈ 74.2 µM), the MIC [7] was no more than 0.05 µg/mL and the MIC (Salmonella typhosa H901; Salmonella enterica, TYPHOSA) was 100 µg/mL (≈ 148 µM). It also gave an MIC [8, 23] of no more than 0.05 µg/mL, an MIC [9, 24] of 1.6 µg/mL (≈ 2.37 µM) and an MIC [10] of no more than 0.05 µg/mL. The MIC [11] was 100 µg/mL (≈ 148 µM), the MIC [12] was 100 µg/mL (≈ 148 µM) and the MIC [13] was 50 µg/mL (≈ 74.2 µM). It also gave an MIC [14, 25] of no more than 0.05 µg/mL, an MIC [15] of 6.3 µg/mL (≈ 9.35 µM) and an MIC [16] of no more than 0.05 µg/mL. It also gave an MIC [17, 26] of no more than 0.05 µg/mL, an MIC [18] of 50 µg/mL (≈ 74.2 µM) and an MIC (Serratia marcescens; read-out: MIC) of 25 µg/mL (≈ 37.1 µM). The MIC [19, 27] was 100 µg/mL (≈ 148 µM).

In the case of CCC1OC(=O)CC(O)C(C)C(OC2OC(C)C(O)C(N(C)C)C2O)C(CC=O)CC(C)C(=O)C=CC(C)=CC1COc1cccc(N(CC)CC)c1 (stereo not drawn), the MIC (Escherichia coli B) is reported as greater than 100 µg/mL, the MIC [1] is reported as 0.2 µg/mL (≈ 0.268 µM) and the MIC (Sarcina lutea ATCC 9341) is reported as 0.1 µg/mL (≈ 0.134 µM). The MIC (Proteus vulgaris OX19; [20]) was 25 µg/mL (≈ 33.6 µM), the MIC (Shigella sonnei E33) was greater than 100 µg/mL and the MIC [2] was 0.1 µg/mL (≈ 0.134 µM). It also gave an MIC [3, 21] of 0.2 µg/mL (≈ 0.268 µM), an MIC [4] of 0.1 µg/mL (≈ 0.134 µM) and an MIC [5] greater than 100 µg/mL. The MIC [6, 22] was greater than 100 µg/mL, the MIC [7] was 0.4 µg/mL (≈ 0.537 µM) and the MIC (Salmonella typhosa H901; Salmonella enterica, TYPHOSA) was greater than 100 µg/mL. The MIC [8, 23] was 0.2 µg/mL (≈ 0.268 µM), the MIC [9, 24] was 3.1 µg/mL (≈ 4.16 µM) and the MIC [10] was 0.8 µg/mL (≈ 1.07 µM). The MIC [11] was 50 µg/mL (≈ 67.1 µM), the MIC [12] was 25 µg/mL (≈ 33.6 µM) and the MIC [13] was 12.5 µg/mL (≈ 16.8 µM). The MIC [14, 25] was no more than 0.05 µg/mL, the MIC [15] was 50 µg/mL (≈ 67.1 µM) and the MIC [16] was 0.4 µg/mL (≈ 0.537 µM). It also gave an MIC [17, 26] of 0.1 µg/mL (≈ 0.134 µM), an MIC [18] of 25 µg/mL (≈ 33.6 µM) and an MIC (Serratia marcescens; read-out: MIC) greater than 100 µg/mL. It also gave an MIC [19, 27] greater than 100 µg/mL.

In the case of CCC1OC(=O)CC(O)C(C)C(OC2OC(C)C(O)C(N(C)C)C2O)C(CC=O)CC(C)C(=O)C=CC(C)=CC1CSC(C)c1ccccc1 (stereo not drawn) [23-(1-phenylethyl)thio-23-demycinosyl-23-deoxydesmycosin], the MIC [1] is reported as no more than 0.05 µg/mL, the MIC (Sarcina lutea ATCC 9341) is reported as 0.05 µg/mL (≈ 0.0696 µM) and the MIC (Proteus vulgaris OX19; [20]) is reported as 12.5 µg/mL (≈ 17.4 µM). It also gave an MIC (Shigella sonnei E33) of 50 µg/mL (≈ 69.6 µM), an MIC [2] of 0.1 µg/mL (≈ 0.139 µM) and an MIC [3, 21] of 0.2 µg/mL (≈ 0.279 µM). It also gave an MIC [4] of no more than 0.05 µg/mL, an MIC [5] of 50 µg/mL (≈ 69.6 µM) and an MIC [6, 22] greater than 100 µg/mL. The MIC (Salmonella typhosa H901; Salmonella enterica, TYPHOSA) was 100 µg/mL (≈ 139 µM), the MIC [8, 23] was 0.2 µg/mL (≈ 0.279 µM) and the MIC [9, 24] was 3.1 µg/mL (≈ 4.32 µM). It also gave an MIC [10] of 0.2 µg/mL (≈ 0.279 µM), an MIC [13] of 25 µg/mL (≈ 34.8 µM) and an MIC [16] of 0.2 µg/mL (≈ 0.279 µM). For the same molecule, the MIC [18] was 25 µg/mL (≈ 34.8 µM).

In the case of CC[C@H]1OC(=O)[C@H](C)[C@@H](O[C@H]2C[C@@](C)(OC)[C@@H](O)[C@H](C)O2)[C@H](C)[C@@H](O[C@@H]2O[C@H](C)C[C@H](N(C)C)[C@H]2O)[C@](C)(O)C[C@@H](C)C(=O)[C@H](C)[C@@H](O)[C@]1(C)O [EM, erythromycin, reference compound], the MIC (Escherichia coli B) is reported as greater than 100 µg/mL, the MIC (Sarcina lutea ATCC 9341) is reported as no more than 0.05 µg/mL and the MIC (Proteus vulgaris OX19; Proteus vulgaris OX19) is reported as 25 µg/mL (≈ 34.1 µM). For the same molecule, the MIC (Proteus vulgaris OX19; Proteus vulgaris, OX19, Proteus vulgaris OX19) was 50 µg/mL (≈ 68.1 µM), the MIC (Shigella sonnei E33) was 100 µg/mL (≈ 136 µM) and the MIC ([3]; Bacillus subtilis, ATC6633, Bacillus subtilis ATC 6633) was 0.1 µg/mL (≈ 0.136 µM). It also gave an MIC [5] of 100 µg/mL (≈ 136 µM), an MIC ([6]; Pseudomonas aeruginosa) of 100 µg/mL (≈ 136 µM) and an MIC [7] of 0.4 µg/mL (≈ 0.545 µM). For the same molecule, the MIC (Salmonella typhosa H901) was 50 µg/mL (≈ 68.1 µM), the MIC (Salmonella typhosa H901; Salmonella enterica, TYPHOSA) was 100 µg/mL (≈ 136 µM) and the MIC ([8]; Enterococcus faecalis, 1501, Streptococcus faecalis 1501) was 0.2 µg/mL (≈ 0.273 µM). It also gave an MIC ([9]; Klebsiella pneumoniae, ATCC10031, Klebsiella pneumoniae ATCC 10031) of 6.3 µg/mL (≈ 8.58 µM), an MIC ([14]; Corynebacterium, P.Y.8) of no more than 0.05 µg/mL and an MIC [15] of 12.5 µg/mL (≈ 17 µM). It also gave an MIC ([17]; Micrococcus flavus) of 0.1 µg/mL (≈ 0.136 µM), an MIC (Serratia marcescens) of 100 µg/mL (≈ 136 µM) and an MIC ([19]; ENTERITIDIS) of 100 µg/mL (≈ 136 µM).

CCC1OC(=O)CC(O)C(C)C(OC2OC(C)C(O)C(N(C)C)C2O)C(CC=O)CC(C)C(=O)C=CC(C)=CC1COC(c1ccccc1)(c1ccccc1)c1ccccc1 (stereo not drawn) [OC(C6 H5)3, 23-O-triphenylmethyl-23-demycinosyldesmycosin] showed an MIC [1] of 1.6 µg/mL (≈ 1.9 µM), an MIC (Sarcina lutea ATCC 9341) of 0.4 µg/mL (≈ 0.476 µM) and an MIC (Proteus vulgaris OX19; [20]) greater than 100 µg/mL. For the same molecule, the MIC (Shigella sonnei E33) was greater than 100 µg/mL, the MIC [2] was 1.6 µg/mL (≈ 1.9 µM) and the MIC [3, 21] was 3.1 µg/mL (≈ 3.69 µM). It also gave an MIC [4] of 0.8 µg/mL (≈ 0.952 µM), an MIC [5] greater than 100 µg/mL and an MIC [6, 22] greater than 100 µg/mL. The MIC (Salmonella typhosa H901; Salmonella enterica, TYPHOSA) was greater than 100 µg/mL, the MIC [8, 23] was 1.6 µg/mL (≈ 1.9 µM) and the MIC [9, 24] was greater than 100 µg/mL. It also gave an MIC [10] of 1.6 µg/mL (≈ 1.9 µM), an MIC [12] of 25 µg/mL (≈ 29.8 µM) and an MIC [13] of 3.1 µg/mL (≈ 3.69 µM). For the same molecule, the MIC [14, 25] was 0.1 µg/mL (≈ 0.119 µM), the MIC [16] was 1.6 µg/mL (≈ 1.9 µM) and the MIC [18] was 6.3 µg/mL (≈ 7.5 µM).
